US20260199493A1 (priority 2021, published 2026)

Columns and labels:
nuclear foci (CUG foci) = conditions: DM1 patient-derived muscle cells, 30 μM, 4 days of differentiation
Procedure: (§1) Patient myoblasts were treated with 30 micromolar of EEV-oligo throughout 4 days of differentiation. Splicing correction was assessed by one-step RT-PCR. HCR—FISH and sequestered MBNL1 protein detection assays were used to detect RNA foci.
(§2) Patient myoblasts harbor 2600 CTG repeats within the DMPK 3′UTR. […] Splicing correction was assessed by one-step RT-PCR and Labchip analysis. Plotted mean f SD; n=4 HCR—FISH assay for CUG foci detection in place.

[1] = test system: DM1 patient-derived muscle cells; conditions: 30 μM, 4 days of differentiation
Procedure: as §1, §2

HSA mRNA = conditions: HSA-LR mice
From the text: […] The HSA-LR mice were divided into 5 groups. […] […] RT-PCR was used to determine alternative splicing for specific genes (Atp2a1, Clcn1, Nfix, MBNL1). LC-mass was used to determine drug level in Quad, gastro, TA, Triceps, diaphragm, heart, kidney, liver, Brain, plasma. RNA-seq was used to determine the transcription level change between a treated disease model, an untreated disease model and wild-type. Fluorescence imaging was used to determine RNA Foci reduction after treatment with the EEV-oligo compound. […] Q-PCR was used to determine the reduction of mRNA level of actin-HSA after treatment.
(§3) RT-PCR was used to determine alternative splicing for specific genes (Atp2a1, Clcn1, Nfix, MBNL1). LC-mass was used to determine drug level in Quad, gastro, TA, Triceps, diaphragm, heart, kidney, liver, Brain, plasma. RNA-seq was used to determine the transcription level change between a treated disease model, an untreated disease model and wild-type. Fluorescence imaging was used to determine RNA Foci reduction after treatment with the EEV-oligo compound. Myotonia reduction was recorded 7 days after treatment with the EEV-oligo compound. Q-PCR was used to determine the reduction of mRNA level of actin-HSA after treatment.

[2] = test system: MBNL1 downstream genes (Atp2a1, Nfix, Clcn1, Mbnl1); conditions: 1 week
From the text: (§4) 9 week old HSA-LR mice and control FVB mice were employed in a 1 week post single dose range study. The HSA-LR mice were divided into 5 groups. […] Tissues were harvested after 7 days. RT-PCR was used to determine alternative splicing for specific genes (Atp2a1, Clcn1, Nfix, MBNL1). LC-mass was used to determine drug level in Quad, gastro, TA, Triceps, diaphragm, heart, kidney, liver, Brain, plasma. RNA-seq was used to determine the transcription level change between a treated disease model, an untreated disease model and wild-type. Fluorescence imaging was used to determine RNA Foci reduction after treatment with the EEV-oligo compound. […] Q-PCR was used to determine the reduction of mRNA level of actin-HSA after treatment.
as §3

[3] = From the text: as §4
CUG foci = conditions: HSA-LR mouse, 1 week
From the text: as §4

IRF5 protein = conditions: for efficacy relative to EEV-PMO-IRF5-1 / IRF-5 protein expression compared to cells stimulated with R848 / IRF-5 protein reduction: RAW 264.7 cells; for efficacy relative to EEV-PMO-IRF5-1 / relative potency compared to EEV-PMO-IRF5-1 (IRF5 protein expression): R848 stimulation; for efficacy relative to EEV-PMO-IRF5-1: on average; for IRF-5 protein expression compared to cells stimulated with R848: all tested concentrations; for IRF-5 protein reduction: concentrations as low as 2 μM, vs cells stimulated with R848; for relative potency compared to EEV-PMO-IRF5-1 (IRF5 protein expression): mouse macrophage cells, Western Blot
IRF-5 gene exon skipping = conditions: RAW 264.7 cells, 5 μM
Procedure: Briefly, 150K cells/well were seeded in a 24 well plate in 0.5 ml DMEM. […] Following the second incubation, the RNA was harvested and RT-PCR was done using primers that detect exon 5 skipping in the IRF-5 gene.

exon 23 of DMD = conditions: MDX mice, single IV 20 mg/kg, day 5
GYS1 = conditions: GAA knockout mice, single IV dose, one-week post-injection
[4] = in vivo
From the text: as §4, §3

[5] = test system: Human Primary Renal Proximal Tubular Epithelial Cells (RPTECs); conditions: 24 hours
[6] = HSA-LR mice, 15, 30, 60, 90 mpk IV

Substance: Ac-PKKKRKV-AEEA-K(cyclo[FGFGRGRQ])-PEG12-OH [EEV-PMO-DM1-3]
- nuclear foci (nuclear foci (CUG foci)): reduction in nuclear foci
- biomarker splicing correction [1]: significant biomarker splicing correction
- HSA mRNA knockdown (HSA mRNA; 80 mpk IV, 1-week and 4-week post-injection): HSA mRNA knockdown trend
- HSA mRNA knockdown in skeletal muscles (HSA mRNA; quadriceps, gastrocnemius, triceps, tibialis anterior, 1 week): 50-70%
- correction of MBNL1 downstream genes, gastrocnemius [2, 6]: dose dependent correction
- correction of MBNL1 downstream genes, quadriceps [2, 6]: dose dependent correction
- correction of MBNL1 downstream genes, tibialis anterior [2, 6]: dose dependent correction
- correction of MBNL1 downstream genes, triceps [2, 6]: dose dependent correction
- mis-splicing in gastrocnemius, triceps, tibialis anterior and quadricep ([2]; HSA-LR mice, 60 mpk oligo, 80 mpk whole drug): fully correct mis-splicing
- myotonia ([3]; HSA-LR mice, 15, 30, 60 and 90 mpk, 7 days): dose dependent myotonia reduction
- hindlimb myotonia ([3]; HSA-LR mice, single dose 90 mg/kg, 1 week): did not exhibit obvious signs of hindlimb myotonia after induction
- CUG foci in TA muscle (CUG foci): reduces CUG foci

Substance: Ac-PKKKRKV-AEEA-K(cyclo[FGFGRRRQ])-PEG12-OH [EEV-PMO-IRF5-3]
- efficacy relative to EEV-PMO-IRF5-1 (IRF5 protein): 5 fold
- IRF-5 protein expression compared to cells stimulated with R848 (IRF5 protein): significant reduction in IRF-5 protein expression
- IRF-5 protein reduction (IRF5 protein): about 80%
- relative potency compared to EEV-PMO-IRF5-1 (IRF5 protein expression) (IRF5 protein): significant improvement in relative potency
- exon skipping compared to EEV-PMO-IRF5-1 (IRF-5 gene exon skipping): higher exon skipping

Substance: Ac-PKKKRKV-AEEA-K(cyclo[FGFRRRRQ])-PEG12-OH [EEV-PMO-IRF5-4]
- efficacy relative to EEV-PMO-IRF5-1 (IRF5 protein): 5 fold
- IRF-5 protein expression compared to cells stimulated with R848 (IRF5 protein): significant reduction in IRF-5 protein expression
- IRF-5 protein reduction (IRF5 protein): about 80%
- relative potency compared to EEV-PMO-IRF5-1 (IRF5 protein expression) (IRF5 protein): significant improvement in relative potency
- exon skipping compared to EEV-PMO-IRF5-1 (IRF-5 gene exon skipping): higher exon skipping

Substance: Ac-PKKKRKV-AEEA-K(cyclo[FfΦGrGrQ])-PEG12-OH [EEV-PMO-IRF5-2]
- efficacy relative to EEV-PMO-IRF5-1 (IRF5 protein): 5 fold
- IRF-5 protein expression compared to cells stimulated with R848 (IRF5 protein): significant reduction in IRF-5 protein expression
- IRF-5 protein reduction (IRF5 protein): about 80%
- relative potency compared to EEV-PMO-IRF5-1 (IRF5 protein expression) (IRF5 protein): significant improvement in relative potency
- exon skipping compared to EEV-PMO-IRF5-1 (IRF-5 gene exon skipping): higher exon skipping

Substance: Ac-PKKKRKV-AEEA-K(cyclo[GfFGrGrQ])-AEEA-K(N3)-NH2 [EEV-PMO-MDX-6]
- exon skipping in heart vs diaphragm, tibialis anterior, triceps (exon 23 of DMD): a lower level of exon skipping in heart tissue

Substance: Ac-PKKKRKV-PEG2-K(cyclo[Ff-Φ-Cit-r-Cit-rQ1)-PEG12-K(N3)-NH2 [EEV-PMO-GYS1-1]
- GYS1 expression in the diaphragm and cardiac muscle (GYS1): significant knockdown

Substance: Ac-PKKKRKV-PEG2-K(cyclo[Ff-Φ-GrGrQ])-PEG2-K(N3)-NH2 [EEV-PMO-GYS1-2]
- GYS1 expression in the diaphragm and cardiac muscle (GYS1): significant knockdown

Substance: CAGCAGCAGCAGCAGCAGCAG [PMO-DM1]
- metabolite of EEV-PMO-DM1-3 [4]: major metabolite detected in vivo
- toxicity (viability): no toxicity at highest concentration tested [5]: > 817 µM
